Read-outs that look alike come from different tables or passages of the source.
Legend:
J774-Dual cytotoxicity = format: cell-based, mouse; conditions: mouse, J774-Dual cells, read-out: J774 cytotox CC50
Protocol: The OTRADI Small Molecule Library of approximately 246,000 diverse compounds (see below for description) was screened using the THP1-Dual based HTS platform described above. All transfer steps in the screen are fully automated, thus reducing variability. Primary screening included a single data point or dose for each molecule. After data normalization was applied for each assay run, “hit” selection was performed on the plates that pass the quality control (QC) criterion. Hits were defined as samples having values above the activity cutoff determined based on noise level of the assay to reduce false positive rates. […] The ratio of ISRE:NFκB activity was also calculated as a selectivity index for prioritizing hit selection. Primary hits underwent secondary screening to determine the 50% effective concentration (EC50) and 50% cytotoxic concentration (CC50) of these agents using an 8-point dose-response curve in the human THP1-Dual cells. Cytotoxicity was measured in the plate using Cell Titer Glo (Promega). Identified candidate compounds were further screened (orthogonal screen) for cross species activity in the validated mouse J774-Dual assay using an 8-point dose-response format to determine EC50 and CC50 values as well as ISRE:NFκB ratios. A general process flow for the experimental design laid out above is depicted at FIG. 12.

[1] = test system: IRF-Lucia luciferase reporter (ISRE) in THP1-Dual cells; assay: THP1-Dual IRF-Lucia luciferase reporter assay (ISRE activation); format: cell-based, human; conditions: THP1-Dual; for EC50: Homo sapiens, read-out: THP1 IRF EC50
Protocol: THP1 Dual (InvivoGen) cell suspensions were cultured in RPMI 1640 (Hyclone, Logan, Utah) supplemented with 10% fetal bovine serum (Hyclone), 100 U/mL Normocin (Invivogen), and 50 U/mL PenStrep (Gibco, Dublin, Ireland) between a density of 7·10^5-2·10^6 cells/mL. Every other passage, media was supplemented with 5 U/mL Blasticidin and 100 U/mL Zeocin to maintain the expression constructs. White, flat-bottom 384-well plates (Greiner, Kremsmunster, Austria, 781080) were seeded with 2.5·10^4 cells/well in a total of 50 μL media containing 5 ng/mL phorbolmyristic acid (PMA) using a Matrix WellMate (Thermo Scientific) dispenser. After 48 hours of incubation at 37° C., media was removed using a BioTek ELx405 CW plate washer set to aspirate and wash each well three times with 65 μL 1×PBS. Plates were reloaded with 50 μL media without PMA and treatments added. Lipopolysaccharide in dimethylsulfoxide (DMSO) was transferred to control wells using a HP D300 microdispenser to a final concentration of 313 ng/mL. Compounds from chemical library plates were copied using a Sciclone (Caliper LifeSciences) mounted with a 384-pin transfer tool to obtain a final concentration of 10 μM. After incubation with treatments for 24 hours, 10 μL of supernatant media from each well was transferred into a white, flat-bottom 384-well plate for luminescence readout and a black-walled, clear flat-bottom 384-well plate for absorbance readout.
Specifically, to enable screening of novel chemical entities (NCEs) in a larger screening effort, a robust high-throughput cell-based assay system for primary hit identification of ISRE activators based on the above-mentioned target validation was desired. Human ISRE activity was verified using a THP-1 monocyte line containing the NF-κB-SEAP and IRF-Lucia luciferase dual reporter (THP1-Dual; Invivogen) that features two reporter genes, SEAP (secreted embryonic alkaline phosphatase) and Lucia luciferase, thereby enabling the simultaneous study of the NF-κB and IRF signalling pathways. The Lucia luciferase reporter is under the control of an ISG54 (interferon-stimulated gene) minimal promoter in conjunction with five IFN-stimulated response elements. The SEAP gene is driven by an IFN-β minimal promoter fused to five copies of the NF-κB consensus transcriptional response element and three copies of the c-Rel binding site. Both reporter proteins are readily measurable in the cell culture supernatant when using QUANTI-LUC™ and QUANTI-Blue SEAP detection reagents.
The responsiveness of the human THP-1 Dual cell line was evaluated in an array of assay conditions to obtain sensitive and reproducible results for the activation of IRF and NF-κB reporters. […] All transfer steps are fully automated using high throughput robotic equipment. Briefly, cells are seeded in differentiation medium using a Matrix WellMate fitted with the WellMate Stacker (Thermo Scientific) and incubated at 37° C. with 5% CO2 for 48 h. Following differentiation, cells are washed using a BioTek ELx405 Select CW plate washer and growth medium added with the Matrix WellMate. Programmed control treatments are added to wells using a D300 digital dispenser fitted with T8+ dispense heads (Hewlett Packard) designed to dispense nanoliter quantities of material. Compounds from library plates are added using a pin tool fitted to a Sciclone ALH 3000 Workstation (Caliper Life Sciences) programmed with Maestro v4.4. After treatment, plates are returned to incubators for 24 hours. To measure reporter expression, supernatant is collected using the Sciclone and dispensed into 2 plates: 1) a white 384-well assay plate for Lucia luminescence measurements and 2) a clear-bottom black 384-well assay plate for SEAP absorbance measurements.

[2] = THP1-Dual cytotoxicity (Cell Titer Glo, ATP); format: cell-based, human; conditions: human, THP1-Dual cells, read-out: Thp1 cytotox CC50
Text: FIG. 9C is a CC50 (50% cytotoxic concentration) graph of AV-C dependent IRF activation in THP1-Dual cells, determined with an 8-point dose response experiment. Cell viability was monitored based on quantitation of ATP present, as an indicator of metabolically active cells, where luminescence is proportional to the amount of ATP present, using Cell-Titer Glo (Promega).
The OTRADI Small Molecule Library of approximately 246,000 diverse compounds (see below for description) was screened using the THP1-Dual based HTS platform described above. All transfer steps in the screen are fully automated, thus reducing variability. Primary screening included a single data point or dose for each molecule. After data normalization was applied for each assay run, “hit” selection was performed on the plates that pass the quality control (QC) criterion. Hits were defined as samples having values above the activity cutoff determined based on noise level of the assay to reduce false positive rates. In the pilot study discussed above this activity value was >3σ above the ISRE mean with the added criteria of NFκB activation being lower than […] from the mean to identify IRF selective compounds. The ratio of ISRE:NFκB activity was also calculated as a selectivity index for prioritizing hit selection. Primary hits underwent secondary screening to determine the 50% effective concentration (EC50) and 50% cytotoxic concentration (CC50) of these agents using an 8-point dose-response curve in the human THP1-Dual cells. Cytotoxicity was measured in the plate using Cell Titer Glo (Promega). Identified candidate compounds were further screened (orthogonal screen) for cross species activity in the validated mouse J774-Dual assay using an 8-point dose-response format to determine EC50 and CC50 values as well as ISRE:NFκB ratios. A general process flow for the experimental design laid out above is depicted at FIG. 12.

[3] = Human Reporter Cell Line, 8-point dose response

SMILES | CC50 (J774-Dual cytotoxicity; Mouse Reporter Cell Line) [µM] | EC50 [1, 3] [µM] | CC50 ([2]; Human Reporter Cell Line) [µM] | CC50 (J774-Dual cytotoxicity; Mouse Reporter Cell Line J774) [µM] | EC50 ([1]; Human Reporter Cell Line THP1) [µM] | activation at 25 µM ([1]; 24 h, Human Reporter Cell Line THP1, @25 uM, read-out: THP1 IRF % activation at peak) [%] | CC50 ([2]; Human Reporter Cell Line THP1) [µM]
O=C(Nc1ccc(N2CCN(C(=O)c3ccccc3)CC2)cc1)c1ccc(-c2cccnc2)cc1 [NA-53] | 29.2 | ~1.48 | 12.3 | – | – | – | –
NC(=O)c1cc(NC(=O)c2ccccc2)ccc1N1CCOCC1 [NB-4] | – | – | – | > 25 | ~72.1 | 5.61 | > 25
COC(=O)COc1cccc(NC(=O)c2ccc(NC(=O)c3ccco3)cc2)c1 [NC-1] | > 25 | 2.55 | 27.4 | – | – | – | –
Cc1ccc(-c2nc3ncccc3o2)cc1NC(=O)c1cc(Br)ccc1Cl [ND-3] | – | – | – | > 25 | 3.14 | – | 30.7
Cc1ccc(C(=O)Nc2ccc3oc(-c4cccnc4)nc3c2)c(Cl)c1 [ND-4] | – | – | – | > 25 | 3.13 | – | 49.3
COc1ccc(C(=O)Nc2cc(-c3nc4cc(C)cc(C)c4o3)ccc2C)cc1[N+](=O)[O-] [ND-8] | – | – | – | > 25 | 2.95 | – | > 25
COc1ccc(C(=O)Nc2nc(-c3cc4ccccc4oc3=O)cs2)nc1 [ND-27] | – | – | – | > 25 | 4.68 | – | > 25
COc1ccc(C(=O)Nc2nc(-c3cc4ccccc4oc3=O)cs2)cn1 [ND-28] | – | – | – | > 25 | ~3.3 | – | > 25
Cc1ccc(-c2nc3ccccc3o2)cc1NC(=O)c1ccc(C)c([N+](=O)[O-])c1 [ND-30] | – | – | – | > 25 | 15.2 | – | > 25
Cc1ccc2nc(-c3ccc(C)c(NC(=O)c4ccc(C)c([N+](=O)[O-])c4)c3)oc2c1 [ND-31] | – | – | – | > 25 | ~3.14 | – | 22.3
Cc1cc2nc(-c3ccc(C)c(NC(=O)c4ccc(N5CCCC5)c([N+](=O)[O-])c4)c3)oc2cc1C [ND-34] | – | – | – | > 25 | ~11.4 | – | > 25
COc1ccc2oc(-c3ccc(C)c(NC(=O)c4ccc(N5CCOCC5)c([N+](=O)[O-])c4)c3)nc2c1 [ND-35] | – | – | – | > 25 | 2.13 | – | 35.7
Cc1cc2nc(-c3ccc(C)c(NC(=O)c4cccc([N+](=O)[O-])c4)c3)oc2cc1C [ND-36] | – | – | – | > 25 | ~8.05 | – | > 25
COc1cc(C(=O)Nc2cc(-c3nc4ccccc4s3)ccc2C)cc(OC)c1OC [ND-37] | – | – | – | > 25 | 11.8 | – | > 25
COc1ccc2nc(NC(=O)c3ccc(OC)c([N+](=O)[O-])c3)sc2c1 [ND-39] | – | – | – | > 25 | 2.49 | – | > 25
COc1ccc(C(=O)Nc2cccc(-c3nc4ncccc4o3)c2)cc1[N+](=O)[O-] [ND-41] | – | – | – | > 25 | 2.04 | – | > 25
COc1ccc(C(=O)Nc2ccc3oc(-c4cccnc4)nc3c2)cc1[N+](=O)[O-] [ND-43] | – | – | – | > 25 | 5.1 | – | 20.3
COc1ccc(C(=O)Nc2cccc(-c3nc4cc(C)c(C)cc4o3)c2)cc1[N+](=O)[O-] [ND-46] | – | – | – | 27.9 | 3.22 | – | 13.1
COc1ccc(C(=O)Nc2cc(-c3nc4cc(C)c(C)cc4o3)ccc2Cl)cc1[N+](=O)[O-] [ND-50] | – | – | – | > 25 | ~11.9 | – | > 25
O=C(Nc1nc2ccc3scnc3c2s1)c1ccc2ccccc2c1 [ND-58] | – | – | – | > 25 | 2.8 | – | > 25
COc1ccc(C(=O)Nc2cc(-c3nc4cc(C)c(C)cc4o3)ccc2C)cc1N [ND-60] | – | – | – | > 25 | ~6.31 | – | > 25
Cc1ccc(-c2nc3ccccc3s2)cc1NC(=O)c1ccc(Cl)c([N+](=O)[O-])c1 [ND-64] | – | – | – | > 25 | 7.27 | – | > 25
COc1c(Cl)cc(C(=O)Nc2cc(-c3nc4cc(C)c(C)cc4o3)ccc2C)cc1Cl [ND-69] | – | – | – | > 25 | ~5.39 | – | > 25
Cc1cccc([C@H](C)c2cnc[nH]2)c1C [ND-76] | – | – | – | > 25 | ~0.716 | – | > 25
COc1ccc2oc(-c3ccc(C)c([N+](=O)[O-])c3)nc2c1 [ND-84] | – | – | – | > 25 | ~19.6 | – | > 25
COc1ccc(-c2nc3cc(C(C)C)ccc3o2)cc1NC(=O)c1cc(C)cc(C)c1 [ND-91] | – | – | – | > 25 | ~5.87 | – | > 25
